In patent US20110139152A1, “ANTIBIOTIC MICROPARTICLES FOR INHALATION” (Chiesi Farmaceutici S.p.A., priority 2009, published 2011):

Assay: Aerosol performance by laser diffraction (Spraytec with inhalation cell, Monodose inhaler)
Format: physicochemical
Conditions: mean
Protocol: The aerosol performance of the microparticles of the present invention were evaluated by laser diffraction (Spraytec, Malvern Instruments, Worcestershire, UK) equipped with an inhalation cell attachment. Approximate 30 mg (or 15 mg in later tests) of each powder was loaded into size 3 HPMC capsules (Capsugel, Peapack, N.J., USA). Before the aerosolization, a stainless steel pin punched each end of the capsule allowing powders to be released from the capsule by providing two holes with diameter about 1 mm. Each capsule was aerosolized using a Monodose inhaler device (Miat S.p.A., Milan, Italy) at flow rate of 60 and 90 L/min. All measurements were made on four replicates at room temperature (20° C., 50% RH). Each measurement was performed over 4 s.
The device retention was calculated as a percentage of powder left both in the capsules and in the inhalers to the total load. The fine particle fraction (FPF) was defined as the amount of drug particle smaller than 5.4 μm as a percentage of the powder emitted from inhaler device.
It should be noted that all powders were tested after removing large agglomerates by gently passing the powders through a 250 μm sieve.
To further improve both the emitted dose and FPF of the mechano-fused microparticles with lower contents of MgSt, e.g. between 0.5% and 1%, loose agglomeration was applied by vibrating powders between two sieves of 180 and 710 μm.
Prior to this sieving process, powders were tumbled to encourage formation of loose agglomerates.

[1] = 90 L/min, loosely agglomerated drug powders (tumbled, vibrated between sieves of 180 and 710 μm) versus unsieved

NC[C@H]1O[C@H](O[C@H]2[C@H](O)[C@@H](O[C@H]3O[C@H](CO)[C@@H](O)[C@H](N)[C@H]3O)[C@H](N)C[C@@H]2N)[C@H](N)C[C@@H]1O [TMC-raw, (2S,3R,4S,5S,6R)-4-amino-2-{[(1S,2S,3R,4S,6R)-4,6-diamino-3-{[(2R,3R,5S,6R)-3-amino-6-(aminomethyl)-5-hydroxyoxan-2-yl]oxy}-2-hydroxycyclohexyl]oxy}-6-(hydroxymethyl)oxane-3,5-diol]
<5.4 μm (%) (fine particle fraction, FPF) (90 L/min air flow, Monodose inhaler, percentage of the powder emitted, powders passed through 250 μm sieve): 32.58% | <5.4 μm (%) (fine particle fraction, FPF) (90 L/min air flow, Monodose inhaler, percentage of the powder emitted, powders passed through 250 μm sieve, listed as untreated drug powder): around 30% | Emitted dose (%) (90 L/min air flow, Monodose inhaler, size 3 HPMC capsules, powders passed through 250 μm sieve): 70.77% | <5.4 μm (%) (fine particle fraction, FPF) [1]: 32.58% | Emitted dose (%) [1]: 70.77%
